In brackets after ≈: the same amount, converted by molar mass.
Tests used:
[1] = tested on: Mite Ova; experiment: whole plant or invertebrate
Description: The test organism was the egg of the two-spotted mite (Tetranychus urticae (Koch)), as obtained from adults reared on Tendergreen bean plants under controlled conditions of 80±5° F. and 50±5 percent relative humidity. Heavily infested leaves from a stock culture were placed on the primary leaves of two bean plants 6 to 8 inches in height, growing in a 21/2 inch clay pot. Females were allowed to oviposit for a period of 48 hours and then the leaves of the infested plants were dipped in a solution containing 800 parts of tetraethyl pyrophosphate per million parts of water in order to destroy the reproductory forms and thus prevent further egg laying. […] The plants were allowed to dry thoroughly. […] The potted plants (one pot per compound) were placed on a revolving turntable and sprayed with 100-110 milliliters of test compound formulation by use of a DeVilbis spray gun set at 40 psig. air pressure. This application, which lasted 30 seconds, was sufficient to wet the plants to run-off. As a control, 100-110 milliliters of a water solution containing acetone and emulsifier in the same concentrations as the test compound formulation, but containing no test compound, were also sprayed on plants infested with eggs. The sprayed plants were held at 80±5° F. and 50±5 percent relative humidity for 4 days, after which a microscopic examination was made of unhatched (dead) and hatched (living) eggs.
(§1) Side by side comparison tests were conducted to determine the effectiveness of selected enol ester compounds relative to (bis(p-chlorophenyl)trichlorethanol) a miticide sold under the trademark Kelthane and ovex (p-chlorophenyl-p-chlorobenzene sulfonate) two widely used commercial miticides.

[2] = tested on: Mite Adults; experiment: whole plant or invertebrate
Description: Adults and nymphal stages of the two-spotted mite (tetranychus urticae (Koch)), reared on Tendergreen bean plants at 80±5° F. and 50±5 percent relative humidity, were the test organisms. Infested leaves from a stock culture were placed on the primary leaves of two bean plants 6 to 8 inches in height, growing in a 21/2 inch clay pot. 150-200 Mites, a sufficient number for testing, transferred from the excised leaves to the fresh plants in a period of 24 hours. Following the 24 hour transfer period, the excised leaves were removed from the infested plants. The test compounds were formulated by diluting the stock suspension with water to provide suspensions containing the desired amount of test compound per million parts of final formulation. The potted plants (one pot per compound) were placed on a revolving turntable and sprayed with 100-110 milliliters of test compound formulation by use of a DeVilbis spray gun set at 40 psi. air pressure. This application, which lasted 30 seconds, was sufficient to wet the plants to run-off. As a control, 100-110 milliliters of a water solution containing acetone and emulsifier in the same concentrations as the test compound formulation, but containing no test compound, were also sprayed on infested plants. The sprayed plants were held at 80±5° F. and 50±5 percent relative humidity for 4 days, after which, a mortality count of motile forms was made. Microscopic examination for motile forms was made on the leaves of the test plants. Any individual which was capable of locomotion upon prodding was considered living.
as §1

[3] = tested on: Cotton; experiment: Phytotoxicity, cotton; details: 2500 ppm, 10 days
[4] = tested on: Bean; experiment: Phytotoxicity, bean; details: 2500 ppm, 10 days
[5] = tested on: eggs of the two-spotted mite; experiment: Fumigant toxicity, Method 1 (deposit in pie plate); type: in vivo; details: deposit approx. 160 μg per square cm, 4 days
Description: (§2) Two methods were used to evaluate fumigant properties:
Method 1: Fifty mg. of each compound were dissolved in 5 ml. of acetone and poured into a 20 cm. (bottom diameter) Pyrex No. 210 pie plate. The acetone was allowed to evaporate leaving a deposit of approximately 160 μg. per square cm. The plate was then placed in the bottom of a 50 pound metal lard container (about 30 cm. in diameter and 34 cm. high). Two excised bean plants, held in a 250 ml. Erlenmeyer flask containing 100 ml. of tap water and infested with eggs of the two-spotted mite, were placed in the center of the pie plate. The container was held in the insectary (temperature 80±5° F., 50±5% R. H.) for four days before mortality determinations were made.

[6] = tested on: adults and nymphal stages of the two-spotted mite; experiment: Mite Foliage Spray Test; type: in vivo, Tetranychus urticae (Koch); details: 4 days
Description: (§3) The test procedures were as follows:
(§4) Compositions were rated on the basis of percent kill with a rating of 1 indicating no mortality; 3 signifying an approximately 50% mortality and 5 indicating 100% mortality at the indicated dosage.

[7] = tested on: egg forms of the two-spotted mite; experiment: Fumigant toxicity, Method 2 (treated plants near untreated infested plants); type: in vivo; details: 500 ppm dip, 4 days
Description: as §2
Method 2: Excised bean plants infested with egg forms of the two-spotted mite were dipped in an aqueous preparation (500 ppm) of the test compound. The treated plants were transferred to 250 ml. Erlenmeyer flasks containing 100 ml. of tap water. Four flasks holding treated plants were evenly spaced around a similar flask in which were placed untreated mite-infested plants so that the leaves of the treated foliage were in close proximity (1-3 inches) to the untreated plants. Four days later mortality determinations were made.

[8] = tested on: Perennial rye grass, crabgrass, red root pigweed, mustard; experiment: Preliminary Herbicide Seed Germination Test; details: rating/maximum 40: 100 and 1000 ppm, four species, each rated 1 (no injury) to 5 (no seedlings emerged), 10-12 days
[9] = tested on: two-spotted mite; experiment: Small scale field tests, mite control on Tendergreen bean plants; type: in vivo, Tetranychus urticae (Koch); details: for Average mite control rating, 3rd Reading: 21 days
Description: Selected enol ester compositions were evaluated in small scale field tests to determine whether the excellent miticidal properties observed in greenhouse testing would be obtained under actual conditions of field use.
In Test I 500 ppm aqueous dispersions were prepared as described above. In tests II and III various dilutions of the test compounds ranging from 125 ppm to 1000 ppm were prepared and used. In each case the test dispersions were applied to a minimum of two replicate test plots measuring five feet in length and containing healthy young Tendergreen bean plants which had previously been infested with two-spotted mite (Tetranychus urticae (Koch)). Dispersions of the test compounds at each concentration level were applied to individual replicate plots using 1/2 gallon garden sprayers equipped with spray nozzles to apply approximately 250 ml. of test solution to each replicate. The effectiveness of the treatment was determined at intervals following application, by microscopic examination of five leaves selected at random from each replicate plot. The degree of effectiveness for each leaf was rated on a scale of from 1 to 5 with 1 indicating no control in reference to a standard sprayed with a mixture of solution less test compound and 5 indicating complete control. The results obtained from inspection of sample leaves were then averaged to give a numerical indication of the degree of control for each compound tested at the concentration applied.

[10] = tested on: egg of the two-spotted mite; experiment: Mite Ovicide Test; type: in vivo, Tetranychus urticae (Koch); details: spray on eggs, 4 days
Description: as §3
The plants were allowed to dry thoroughly.
as §4

[11] = tested on: Tomato; experiment: Phytotoxicity, tomato; details: 2500 ppm, 10 days
Description: Experiments were also conducted to determine the phytotoxicity of representative enol ester compositions with respect to healthy fresh plants. […] The test plants were sprayed in accordance with the procedure described above for the Mite Foliage Spray Test so as to deliver approximately 100 milliliters of test solution to the leaves of each plant tested. The sprayed plants and controls were set aside for approximately 1 hour to allow the solutions to dry and were then placed in the greenhouse. After 10 days the plants were visually inspected to determine the extent of foliage injury. A rating of 1 indicates no perceptible injury; 5 indicates the plant was dead and ratings of 2, 3 and 4 indicate intermediate degrees of injury based upon the number and extent to which leaves were injured.

[12] = tested on: Corn; experiment: Phytotoxicity, corn; details: 2500 ppm, 10 days
[13] = concentration to kill 95 percent

Compound: Cc1cc(C)c(C2=C(OC(=O)C(C)(C)C)c3ccccc3C2=O)c(C)c1 [2-(2',4',6'-Trimethylphenyl)-3-(pivaloyloxy)indone]
- LC50 ([1]; Tetranychus urticae, read-out: Mite Ova LD50): 3 µg/mL (≈ 8.61 µM)
- Mite Ova LD95 [1, 13]: 9 ppm
- LC50 ([2]; Tetranychus urticae, read-out: Mite Adults LD50): 5 µg/mL (≈ 14.3 µM)
- Mite Adults LD95 [2, 13]: 170 ppm
- Phytotoxicity Rating, Cotton [3]: 3
- Phytotoxicity Rating, Bean [4]: 1
- Fumigant Toxicity Method 1 [5]: 5 (80-100% control)
- Mite Adult rating [6]: 5 (100% mortality)
- Fumigant Toxicity Method 2 [7]: 5 (80-100% control)
- Herbicide (total preemergence rating) [8]: 32/40
- Average mite control rating, 1st Reading ([9]; Test I, 500 ppm, 4 days, scale 1 (no control) to 5 (complete control)): 4.0
- Average mite control rating, 2nd Reading ([9]; Test I, 500 ppm, 8 days, scale 1 to 5): 3.5
- Average mite control rating, 1st Reading ([9]; Test II, 250 ppm, 3 days, scale 1 to 5): 3.0
- Average mite control rating, 2nd Reading ([9]; Test II, 250 ppm, 7 days, scale 1 to 5): 4.0
- Average mite control rating, 1st Reading ([9]; Test II, 500 ppm, 3 days, scale 1 to 5): 2.3
- Average mite control rating, 2nd Reading ([9]; Test II, 500 ppm, 7 days, scale 1 to 5): 4.7
- Average mite control rating, 1st Reading ([9]; Test III, 125 ppm, 3 days, scale 1 to 5): 1.7
- Average mite control rating, 2nd Reading ([9]; Test III, 125 ppm, 7 days, scale 1 to 5): 2.3
- Average mite control rating, 3rd Reading ([9]; Test III, 125 ppm, scale 1 to 5): 1.7
- Average mite control rating, 1st Reading ([9]; Test III, 250 ppm, 3 days, scale 1 to 5): 3.0
- Average mite control rating, 2nd Reading ([9]; Test III, 250 ppm, 7 days, scale 1 to 5): 4.0
- Average mite control rating, 3rd Reading ([9]; Test III, 250 ppm, scale 1 to 5): 3.7
- Average mite control rating, 1st Reading ([9]; Test III, 500 ppm, 3 days, scale 1 to 5): 3.0
- Average mite control rating, 2nd Reading ([9]; Test III, 500 ppm, 7 days, scale 1 to 5): 4.0
- Average mite control rating, 3rd Reading ([9]; Test III, 500 ppm, scale 1 to 5): 4.5
- Mite Ova rating [10]: 5 (100% mortality)
- Phytotoxicity Rating, Tomato [11]: 3
- Phytotoxicity Rating, Corn [12]: 3

— US4091006A, “Esters of 3-hydroxyindone compounds” (priority 1975, dated 1978)
